In US20260022143A1, “Cyclic Peptide Inhibitors of IL-23” (JANSSEN PHARMACEUTICA NV, priority 2022, published 2026):
Where a name gives a salt, the structure may show the parent alone. Starred links: 1 amine or outer side, 2 acyl side, 3 side chain; linkers in the order of their positions; H or OH if unused. Positions of bridges follow the written chain, without caps; N, C: chain ends. Non-standard residues stand in square brackets, D forms with d. Residues, ends and D or L forms follow the SMILES beside them. *: point of attachment. Me3N+(CH2)2O(CH2)2O(CH2)2CO = C[N+](C)(C)CCOCCOCCC(=O)*; CH2CH2OCH2CH2OCH2CH2NMe3+ = C[N+](C)(C)CCOCCOCC*; Trp(7-Me) = Cc1cccc2c(C[C@H](N)C(=O)O)c[nH]c12; X20 = C[N+](C)(C)CC[C@H](N[*:1])C(=O)[*:2]; 3Pal(5-Me) = Cc1cncc(C[C@H](N)C(=O)O)c1; X29 = O=C([C@H](CCn1ncnn1)N[*:1])[*:2]; 2Nal = N[C@@H](Cc1ccc2ccccc2c1)C(=O)O; AEF = NCCOc1ccc(C[C@H](N)C(=O)O)cc1; 3Pal = N[C@@H](Cc1cccnc1)C(=O)O; Ethyl(2-guanidino) = N=C(N)NCC*; Lys(Me) = CNCCCC[C@H](N)C(=O)O; X90 = COCCOCCOCC[N+](C)(C)CC*; Pen = CC(C)(S)[C@H](N)C(=O)O; Thp = NC1(C(=O)O)CCOCC1; Tfa = O=C(C(F)(F)F)*; Sar = CNCC(=O)O

assay: Exposed Polar Surface Area (EPSA); type: physicochemical; conditions: SFC on Chirex 3014 column; sample 1 mM DMSO stock; read-out: EPSA
In short: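 EPSA, in Å^2, is read from SFC retention time through a linear relationship established with eight calibration standards. Separation uses a Chirex 3014 stationary phase, 35 °C, 14 MPa back pressure, and a 5–60% methanol/ammonium formate modifier gradient in CO2.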

Compound | EPSA
CC(=O)N[C@@H]1C(=O)N[C@@H](CC[N+](C)(C)C)C(=O)N[C@@H]([C@@H](C)O)C(=O)N[C@@H](Cc2c[nH]c3c(C)cccc23)C(=O)N[C@@H](CCCCN(C)C(C)=O)C(=O)N[C@H](C(=O)N[C@@H](Cc2ccc(OCCOCCOCC[N+](C)(C)C)cc2)C(=O)N[C@@H](Cc2ccc3ccccc3c2)C(=O)NC2(C(=O)N[C@@H](CCCCN(C)C(C)=O)C(=O)N[C@@H](CC(N)=O)C(=O)N[C@@H](Cc3cccnc3)C(=O)N(C)CC(=O)N(C)C)CCOCC2)C(C)(C)SSC1(C)C [compound 436] (Ac-[Pen][X20]T[Trp(7-Me)][Lys(Me)](Ac)[Pen]Y(CH2CH2OCH2CH2OCH2CH2NMe3+)[2Nal][Thp][Lys(Me)](Ac)N[3Pal][Sar]-NMe2; disulfide 1-6) | 149 A^2
CC(=O)NCCCC[C@@H]1NC(=O)[C@H](Cc2c[nH]c3c(C)cccc23)NC(=O)[C@H]([C@@H](C)O)NC(=O)[C@H](CC(N)=O)NC(=O)[C@@H](NC(=O)[C@@H](CCCNC(=N)N)NC(=O)CCOCCOCC[N+](C)(C)C)C(C)(C)SSC(C)(C)[C@@H](C(=O)N[C@@H](Cc2ccc(OCCNC(=N)N)cc2)C(=O)N[C@@H](Cc2ccc3ccccc3c2)C(=O)NC2(C(=O)N[C@@H](CCC(=O)O)C(=O)N[C@@H](CC(N)=O)C(=O)N[C@@H](Cc3cncc(C)c3)C(=O)N(C)CC(N)=O)CCOCC2)NC1=O [compound 508, cPEG3aCO-r-Pen(3)-N-T-7MeW-K(Ac)-Pen(3)-AEF(G)-2Nal-THP-E-N-5MePyridinAla-Sar-CONH2] ({Me3N+(CH2)2O(CH2)2O(CH2)2CO}-[dR][Pen]NT[Trp(7-Me)]K(Ac)[Pen]Y(Ethyl(2-guanidino))[2Nal][Thp]EN[3Pal(5-Me)][Sar]-NH2; disulfide 2-7) | 197 A^2
CC(=O)NCCCC[C@@H]1NC(=O)[C@H](Cc2c[nH]c3c(C)cccc23)NC(=O)[C@H]([C@@H](C)O)NC(=O)[C@H](CC(N)=O)NC(=O)[C@@H](NC(=O)C(F)(F)F)C(C)(C)SSC(C)(C)[C@@H](C(=O)N[C@@H](Cc2ccc(OCCN)cc2)C(=O)N[C@@H](Cc2ccc3ccccc3c2)C(=O)NC2(C(=O)N[C@@H](CCn3ncnn3)C(=O)N[C@@H](CC(N)=O)C(=O)N[C@@H](Cc3cccnc3)C(=O)N(C)CC(N)=O)CCOCC2)NC1=O [compound 77] (Tfa-[Pen]NT[Trp(7-Me)]K(Ac)[Pen][AEF][2Nal][Thp][X29]N[3Pal][Sar]-NH2; disulfide 1-6) | 161 A^2

Results, then the molecule that gave them:

EPSA | Compound
138 A^2 | COCCOCCOCC[N+](C)(C)CCOc1ccc(C[C@H](NC(=O)[C@H]2NC(=O)[C@H](CCCCN(C)C(C)=O)NC(=O)[C@H](Cc3c[nH]c4c(C)cccc34)NC(=O)[C@H]([C@@H](C)O)NC(=O)[C@H](CC(=O)N(C)C)NC(=O)[C@@H](NC(=O)CCOCCOCC[N+](C)(C)C)C(C)(C)SSC2(C)C)C(=O)N[C@@H](Cc2ccc3ccccc3c2)C(=O)NC2(C(=O)N[C@@H](CCCCN(C)C(C)=O)C(=O)N[C@@H](CC(N)=O)C(=O)N[C@@H](Cc3cccnc3)C(=O)N(C)CC(=O)N(C)C)CCOCC2)cc1 [compound 239, cPEG3aCO-Pen(3)-N(N(Me)2)-T-7MeW-K(NMeAc)-pen(3)-AEF(NMe2mPEG3)-2Nal-THP-K(NMeAc)-N-3Pya-Sar-CON(Me)2] ({Me3N+(CH2)2O(CH2)2O(CH2)2CO}-[Pen]D(NMe2)T[Trp(7-Me)][Lys(Me)](Ac)[Pen]Y(X90)[2Nal][Thp][Lys(Me)](Ac)N[3Pal][Sar]-NMe2; disulfide 1-6)
145 A^2 | CC(=O)N(C)CCCC[C@@H]1NC(=O)[C@H](Cc2c[nH]c3c(C)cccc23)NC(=O)[C@H]([C@@H](C)O)NC(=O)[C@H](CC(=O)N(C)C)NC(=O)[C@@H](NC(=O)CCOCCOCC[N+](C)(C)C)C(C)(C)SSC(C)(C)[C@@H](C(=O)N[C@@H](Cc2ccc(OCC3CCC([N+](C)(C)C)CC3)cc2)C(=O)N[C@@H](Cc2ccc3ccccc3c2)C(=O)NC2(C(=O)N[C@@H](CCCCN(C)C(C)=O)C(=O)N[C@@H](CC(N)=O)C(=O)N[C@@H](Cc3cccnc3)C(=O)N(C)CC(=O)N(C)C)CCOCC2)NC1=O (single isomer, unassigned) [compound 210, cPEG3aCO-Pen(3)-N(N(Me)2)-T-7MeW-K(NMeAc)-Pen(3)-ACHMF-2Nal-THP-K(NMeAc)-N-3Pya-Sar-CON(Me)2]
